{
  "source": "paper PMC8233418",
  "about": "“Structure and transport mechanism of P5B-ATPases” (Nature Communications, 2021)",
  "key": {"Ypk9 [1]": {"target": "T1, Ypk9 (Thermochaetoides thermophila, UniProt G0S7G9)", "T1 construct": "gene CTHT_0028100; full length, introns removed; N- or C-terminal TEV-G4S-GFP-His10 fusion, made in S. cerevisiae PAP1500; purified in DDM/CHS (ATPase assay) or reconstituted in nanodiscs (cryo-EM)", "T1 sequence (G0S7G9 entry or part of it)": "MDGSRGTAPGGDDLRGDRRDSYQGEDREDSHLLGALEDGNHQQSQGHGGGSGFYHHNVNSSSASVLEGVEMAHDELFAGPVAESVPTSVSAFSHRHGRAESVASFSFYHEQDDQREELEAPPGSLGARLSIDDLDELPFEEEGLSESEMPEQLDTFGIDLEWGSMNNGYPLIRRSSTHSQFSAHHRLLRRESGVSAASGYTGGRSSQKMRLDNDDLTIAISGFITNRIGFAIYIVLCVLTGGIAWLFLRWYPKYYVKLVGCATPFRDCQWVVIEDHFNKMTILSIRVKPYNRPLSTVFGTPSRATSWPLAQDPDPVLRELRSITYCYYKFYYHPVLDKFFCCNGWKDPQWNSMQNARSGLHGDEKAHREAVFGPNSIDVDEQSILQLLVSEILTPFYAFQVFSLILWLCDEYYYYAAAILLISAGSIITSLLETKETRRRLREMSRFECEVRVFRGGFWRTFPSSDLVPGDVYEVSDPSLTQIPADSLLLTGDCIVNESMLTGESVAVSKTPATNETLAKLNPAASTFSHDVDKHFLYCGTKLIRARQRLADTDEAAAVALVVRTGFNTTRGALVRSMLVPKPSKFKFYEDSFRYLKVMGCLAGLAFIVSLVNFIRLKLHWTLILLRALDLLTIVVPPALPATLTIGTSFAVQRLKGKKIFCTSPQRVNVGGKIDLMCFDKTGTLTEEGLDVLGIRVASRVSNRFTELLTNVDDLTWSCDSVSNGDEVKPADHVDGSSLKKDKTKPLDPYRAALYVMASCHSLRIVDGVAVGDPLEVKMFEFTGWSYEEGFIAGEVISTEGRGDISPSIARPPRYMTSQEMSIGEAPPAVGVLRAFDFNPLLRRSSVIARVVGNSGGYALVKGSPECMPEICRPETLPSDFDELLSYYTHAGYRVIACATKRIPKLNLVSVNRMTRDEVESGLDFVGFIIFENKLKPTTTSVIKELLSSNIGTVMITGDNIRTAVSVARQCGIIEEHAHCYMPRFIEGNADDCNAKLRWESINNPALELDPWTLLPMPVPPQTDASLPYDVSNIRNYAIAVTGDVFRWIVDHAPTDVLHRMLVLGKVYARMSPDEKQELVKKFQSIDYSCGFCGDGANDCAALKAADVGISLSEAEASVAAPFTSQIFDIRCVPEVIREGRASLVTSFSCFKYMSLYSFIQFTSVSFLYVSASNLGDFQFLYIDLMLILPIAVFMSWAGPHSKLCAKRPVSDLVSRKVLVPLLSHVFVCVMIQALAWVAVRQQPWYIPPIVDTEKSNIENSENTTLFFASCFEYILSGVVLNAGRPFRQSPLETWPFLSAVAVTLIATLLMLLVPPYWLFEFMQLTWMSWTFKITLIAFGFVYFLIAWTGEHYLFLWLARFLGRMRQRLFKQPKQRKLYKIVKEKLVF", "experiment": "ATPase activity, malachite green phosphate release", "assay_type": "biochemical", "conditions": "5 mM MgCl2, pH 7.0, 37 °C"}, "Ypk9 [2]": {"target": "T1, Ypk9", "experiment": "cryo-EM structure (E2.Pi-SPM […] Å; E2.Pi-AlF/SPM […] Å; E2P* […] Å)", "assay_type": "binding", "conditions": "1 mM SPM with 1 mM MgCl2, AlF or BeF3−; nanodiscs; luminal cleft between TM2, 4 and 6"}, "Ypk9 [3]": {"target": "T1, Ypk9", "experiment": "ATPase activity, malachite green phosphate release", "assay_type": "biochemical", "conditions": "6 mM SPM, 1 mM ATP, 5 mM MgCl2, 100 mM KCl, pH 7.0, 37 °C, DDM/CHS"}},
  "data": [
    {"smiles": "[F][Be-]([F])[F]", "note": "[BeF3−]", "values": [
      {"measurement": "inhibition at 1 mM", "setting": "Ypk9 [1]; 1 mM BeF3−, 1 mM ATP, phosphate analogue", "value": "inhibited by the inhibitors BeF3^− and NaVO4^−"}
    ]},
    {"smiles": "NCCCNCCCCNCCCN", "note": "[spermine]", "values": [
      {"measurement": "cryo-EM structure (E2.Pi-SPM 3.5 Å; E2.Pi-AlF/SPM 3.4 Å; E2P* 3.7 Å)", "setting": "Ypk9 [2]", "value": "The cleft harbors an additional, elongated density compatible with the presence of SPM"},
      {"measurement": "ATPase stimulation", "setting": "Ypk9 [3]", "value": "ATPase activity of purified Ypk9 is stimulated by the polyamine spermine (SPM)"}
    ]},
    {"smiles": "[O]=[V]([OH])([OH])[OH]", "note": "[NaVO4−]", "values": [
      {"measurement": "inhibition at 1 mM", "setting": "Ypk9 [1]; 1 mM NaVO4, 1 mM ATP", "value": "inhibited by the inhibitors BeF3^− and NaVO4^−"}
    ]}
  ]
}
